Reference: US6362369B1, “Phthalic acid diamide derivatives fluorine-containing aniline compounds as starting material, agricultural and horticultural insecticides, and a method for application of the insecticides” (Nihon Nohyaku Co., Ltd., priority 1997, dated 2002)

Experiments:
[1] = test system: diamondback moth (Plutella xylostella); assay: Insecticidal effect on diamondback moth (Test Example 1); assay type: in vivo; details: for Insecticidal effect, Test Example 1 / Insecticidal effect (Test Example 1), judged from mortality: diamondback moth; for Insecticidal effect on diamondback moth (Test Example 1), judged grade: mortality judged according to the criterion shown in Test Example 1; for Insecticidal effect (Test Example 1), judged from mortality: judged by the criterion of Test Example 1
Method in brief: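 Eggs laid by adult moths on Chinese cabbage seedlings, which were immersed in test solution, air-dried and kept at 25 °C. Hatched insects counted 6 days after immersion and mortality calculated, with effect graded by criterion; triplicate groups of 10 insects.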

[2] = test system: rice leafroller (Cnaphalocrocis medinalis); assay: Insecticidal effect on rice leafroller (Test Example 3); assay type: in vivo; details: 500 ppm, 25° C., humidity 70%; for Insecticidal effect, Test Example 3: rice lamina immersed; for Insecticidal effect, Test Example 3 / Insecticidal effect on rice leafroller (Test Example 3), judged grade: four days after inoculation; for Insecticidal effect on rice leafroller (Test Example 3), judged grade / Insecticidal effect (Test Example 3), judged from mortality: rice lamina dip; for Insecticidal effect on rice leafroller (Test Example 3), judged grade: third-instar larvae; for Insecticidal effect (Test Example 3), judged from mortality: 4 days after inoculation
Method in brief: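 Groups of 10 third-instar larvae, in triplicate, are placed on air-dried lamina resting on wet filter paper. Incubation runs four days at 25° C with 70% humidity before survivors and dead are tallied.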

[3] = judged by the mortality criterion of Test Example 1
[4] = third-instar larvae of rice leafroller
[5] = mortality judged by criterion of Test Example 1
[6] = rice leafroller third-instar larvae

CC(C)NC(=O)c1cccc(Cl)c1C(=O)Nc1ccc(F)cc1F [compound 210]
Insecticidal effect, Test Example 1 [1, 3]: A (100) | Insecticidal effect, Test Example 3 [2, 4]: D (79-50)

CCCNC(=O)c1c(Cl)cccc1C(=O)Nc1ccc(OC(F)F)cc1C [compound 15]
Insecticidal effect, Test Example 1 [1, 3]: A (100) | Insecticidal effect, Test Example 3 [2, 4]: A (100)

Cc1ccc(Cl)cc1NC(=O)c1ccccc1C(=O)NC(C)C [compound 51]
Insecticidal effect, Test Example 1 [1, 3]: A (100) | Insecticidal effect, Test Example 3 [2, 4]: A (100)

Cc1cc(OC(F)(F)Br)ccc1NC(=O)c1c(Cl)cccc1C(=O)NC(C)C [compound 238]
Insecticidal effect, Test Example 1 [1, 3]: A (100) | Insecticidal effect, Test Example 3 [2, 4]: A (100)

Cc1cc(OC(F)(F)C(F)(F)c2ccccc2)ccc1NC(=O)c1cccc(I)c1C(=O)NC(C)C [compound 1088]
Insecticidal effect, Test Example 1 [1, 5]: A (100) | Insecticidal effect, Test Example 3 [2, 6]: A (100)

Cc1cc(C(F)(F)C(F)(F)F)ccc1NC(=O)c1ccccc1C(=O)NC(C)(C)CO [compound 1381]
Insecticidal effect, Test Example 1 [1, 5]: A (100) | Insecticidal effect, Test Example 3 [2, 6]: C (89-80)

CCN(CC)C(=O)c1cccc(I)c1C(=O)Nc1ccc(C(F)(F)C(F)(F)F)cc1C [compound 1036]
Insecticidal effect, Test Example 1 [1, 5]: A (100) | Insecticidal effect, Test Example 3 [2, 6]: A (100)

C=CCNC(=O)c1c(C(=O)Nc2ccc(OC(F)F)cc2C)cccc1[N+](=O)[O-] [compound 867]
Insecticidal effect on diamondback moth (Test Example 1), judged grade [1]: A (100) | Insecticidal effect on rice leafroller (Test Example 3), judged grade [2]: C (89-80)

CC(C)(C)NC(=O)c1ccccc1C(=O)Nc1ccc2c(c1)OC(F)(F)O2 [compound 1103]
Insecticidal effect, Test Example 1 [1, 5]: A (100) | Insecticidal effect, Test Example 3 [2, 6]: A (100)

CCN(CC)C(=O)c1c(F)cccc1C(=O)Nc1ccc(OC(F)F)cc1C [compound 1528]
Insecticidal effect (Test Example 1), judged from mortality [1]: A (100) | Insecticidal effect (Test Example 3), judged from mortality [2, 4]: A (100)

Cc1ccccc1CNC(=O)c1c(Cl)cccc1C(=O)Nc1ccc(C(F)(F)C(F)(F)F)cc1C [compound 1337]
Insecticidal effect, Test Example 1 [1, 5]: A (100) | Insecticidal effect, Test Example 3 [2, 6]: A (100)

Cc1cc(Oc2ncc(C(F)(F)F)cc2Cl)ccc1NC(=O)c1c(Cl)cccc1C(=O)NC(C)C [compound 250]
Insecticidal effect, Test Example 1 [1, 3]: A (100) | Insecticidal effect, Test Example 3 [2, 4]: D (79-50)

CCC(C)CNC(=O)c1c(I)cccc1C(=O)Nc1ccc(C(F)(F)C(F)(F)F)cc1C (stereo not shown) [compound 1026]
Insecticidal effect, Test Example 1 [1, 5]: A (100) | Insecticidal effect, Test Example 3 [2, 6]: A (100)

Cc1cc2oc(C(F)(F)F)nc2cc1NC(=O)c1cccc(I)c1C(=O)NC(C)C [compound 1641]
Insecticidal effect (Test Example 1), judged from mortality [1]: A (100) | Insecticidal effect (Test Example 3), judged from mortality [2, 4]: A (100)

CC(C)NC(=O)c1c(C(=O)Nc2cc(C(F)(F)F)ccc2Cl)cccc1[N+](=O)[O-] [compound 661]
Insecticidal effect on diamondback moth (Test Example 1), judged grade [1]: B (99-90) | Insecticidal effect on rice leafroller (Test Example 3), judged grade [2]: D (79-50)

COc1ccccc1NC(=O)c1cccc([N+](=O)[O-])c1C(=O)NC(C)C [compound 612]
Insecticidal effect on diamondback moth (Test Example 1), judged grade [1]: A (100) | Insecticidal effect on rice leafroller (Test Example 3), judged grade [2]: D (79-50)

Cc1ccc(Cl)cc1NC(=O)c1c(OC(F)F)cccc1C(=O)NC(C)C [compound 778]
Insecticidal effect on diamondback moth (Test Example 1), judged grade [1]: A (100) | Insecticidal effect on rice leafroller (Test Example 3), judged grade [2]: A (100)

CC(C)NC(=O)c1c(F)cccc1C(=O)Nc1ccc(SC(F)F)cc1 [compound 477]
Insecticidal effect on diamondback moth (Test Example 1), judged grade [1]: A (100) | Insecticidal effect on rice leafroller (Test Example 3), judged grade [2]: C (89-80)

Cc1cc(C(F)(F)C(F)(F)F)ccc1NC(=O)c1cccc(I)c1C(=O)N1CCCC1 [compound 1047]
Insecticidal effect, Test Example 1 [1, 5]: A (100) | Insecticidal effect, Test Example 3 [2, 6]: A (100)

CCN(CC)C(=O)c1c(F)cccc1C(=O)Nc1ccc(OC(F)(F)F)cc1 [compound 1548]
Insecticidal effect (Test Example 1), judged from mortality [1]: A (100) | Insecticidal effect (Test Example 3), judged from mortality [2, 4]: A (100)

Cc1cc(OC(F)F)ccc1NC(=O)c1cc(I)ccc1C(=O)NC(C)C [compound 1205]
Insecticidal effect, Test Example 1 [1, 5]: A (100) | Insecticidal effect, Test Example 3 [2, 6]: A (100)

Cc1cc(Cl)ccc1NC(=O)c1c(Br)ccc(Br)c1C(=O)NC(C)C [compound 341]
Insecticidal effect, Test Example 1 [1, 3]: A (100) | Insecticidal effect, Test Example 3 [2, 4]: A (100)

CCNC(=O)c1cccc(Cl)c1C(=O)Nc1ccc(OC(F)F)cc1C [compound 9]
Insecticidal effect, Test Example 1 [1, 3]: A (100) | Insecticidal effect, Test Example 3 [2, 4]: A (100)

Cc1cc(C(F)(F)C(F)(F)F)ccc1NC(=O)c1cccc(Cl)c1C(=O)NC1CCCO1 (stereo not shown) [compound 1392]
Insecticidal effect, Test Example 1 [1, 5]: A (100) | Insecticidal effect, Test Example 3 [2, 6]: A (100)

Cc1cc(C(F)(F)F)ccc1NC(=O)c1cccc([N+](=O)[O-])c1C(=O)NC(C)C [compound 682]
Insecticidal effect on diamondback moth (Test Example 1), judged grade [1]: A (100) | Insecticidal effect on rice leafroller (Test Example 3), judged grade [2]: A (100)

CCC(C)(C)NC(=O)c1c(F)cccc1C(=O)Nc1ccc(OC(F)F)cc1C [compound 1155]
Insecticidal effect, Test Example 1 [1, 5]: A (100) | Insecticidal effect, Test Example 3 [2, 6]: A (100)

Cc1cc(C(F)(F)C(F)(F)F)ccc1NC(=O)c1cccc(I)c1C(=O)N(C)CC(C)C [compound 1043]
Insecticidal effect, Test Example 1 [1, 5]: A (100) | Insecticidal effect, Test Example 3 [2, 6]: A (100)

Cc1cccc(NC(=O)c2cccc([N+](=O)[O-])c2C(=O)NC(C)C)c1C [compound 647]
Insecticidal effect on diamondback moth (Test Example 1), judged grade [1]: A (100) | Insecticidal effect on rice leafroller (Test Example 3), judged grade [2]: B (99-90)

CC(C)NC(=O)c1cccc(Br)c1C(=O)Nc1ccc(OC(F)(F)F)cc1Br [compound 324]
Insecticidal effect, Test Example 1 [1, 3]: A (100) | Insecticidal effect, Test Example 3 [2, 4]: A (100)

CCN(CC)C(=O)c1ccccc1C(=O)Nc1ccc(Cl)cc1C [compound 1752]
Insecticidal effect (Test Example 1), judged from mortality [1]: A (100) | Insecticidal effect (Test Example 3), judged from mortality [2, 4]: A (100)

Cc1cc(OC(F)(F)C(Cl)(Cl)Cl)ccc1NC(=O)c1c(F)cccc1C(=O)NC(C)C [compound 552]
Insecticidal effect on diamondback moth (Test Example 1), judged grade [1]: A (100) | Insecticidal effect on rice leafroller (Test Example 3), judged grade [2]: B (99-90)

CC(C)(C)NC(=O)c1c(I)cccc1C(=O)Nc1ccc(C(F)(C(F)(F)F)C(F)(F)F)c2c1CCCC2 [compound 1727]
Insecticidal effect (Test Example 1), judged from mortality [1]: A (100) | Insecticidal effect (Test Example 3), judged from mortality [2, 4]: A (100)

CC(C)NC(=O)c1ccccc1C(=O)Nc1cccc(C(F)(F)F)c1 [compound 26]
Insecticidal effect, Test Example 1 [1, 3]: A (100) | Insecticidal effect, Test Example 3 [2, 4]: D (79-50)

Cc1cc(OC(F)(F)C(F)(F)Br)ccc1NC(=O)c1c(F)cccc1C(=O)NC(C)C [compound 554]
Insecticidal effect on diamondback moth (Test Example 1), judged grade [1]: A (100) | Insecticidal effect on rice leafroller (Test Example 3), judged grade [2]: A (100)

CC(C)NC(=O)c1c(Cl)cccc1C(=O)Nc1ccc(-c2ccccc2)cc1 [compound 110]
Insecticidal effect, Test Example 1 [1, 3]: A (100) | Insecticidal effect, Test Example 3 [2, 4]: A (100)

CC(C)NC(=O)c1cccc(Cl)c1C(=O)Nc1ccc(OC(F)(F)F)cc1Cl [compound 234]
Insecticidal effect, Test Example 1 [1, 3]: A (100) | Insecticidal effect, Test Example 3 [2, 4]: A (100)

Cc1cc(C(F)(F)C(F)(F)F)ccc1NC(=O)c1cccc(Cl)c1C(=O)N(C)Cc1cccc(Cl)c1 [compound 1578]
Insecticidal effect (Test Example 1), judged from mortality [1]: A (100) | Insecticidal effect (Test Example 3), judged from mortality [2, 4]: A (100)

Cc1ccccc1NC(=O)c1ccccc1C(=O)NC(C)C [compound 24]
Insecticidal effect, Test Example 1 [1, 3]: A (100) | Insecticidal effect, Test Example 3 [2, 4]: D (79-50)

CC(C)NC(=O)c1c(C(=O)Nc2ccc(C(F)(F)C(F)(F)C(F)(F)C(F)(F)F)cc2)cccc1[N+](=O)[O-] [compound 611]
Insecticidal effect on diamondback moth (Test Example 1), judged grade [1]: A (100) | Insecticidal effect on rice leafroller (Test Example 3), judged grade [2]: A (100)

CCN(CC)C(=O)c1c(F)cccc1C(=O)Nc1ccc(C(F)(F)F)cc1 [compound 1547]
Insecticidal effect (Test Example 1), judged from mortality [1]: A (100) | Insecticidal effect (Test Example 3), judged from mortality [2, 4]: A (100)

COc1ccc(NC(=O)c2cccc([N+](=O)[O-])c2C(=O)NC(C)C)c(C)c1 [compound 688]
Insecticidal effect on diamondback moth (Test Example 1), judged grade [1]: A (100) | Insecticidal effect on rice leafroller (Test Example 3), judged grade [2]: A (100)

CC(C)NC(=O)c1ccccc1C(=O)Nc1ccc(C(F)(F)C(F)(F)F)cc1 [compound 889]
Insecticidal effect on diamondback moth (Test Example 1), judged grade [1]: A (100) | Insecticidal effect on rice leafroller (Test Example 3), judged grade [2]: A (100)

CCCN(CC)C(=O)c1c(F)cccc1C(=O)Nc1ccc(OC(F)(F)F)cc1 [compound 1582]
Insecticidal effect (Test Example 1), judged from mortality [1]: A (100) | Insecticidal effect (Test Example 3), judged from mortality [2, 4]: A (100)

Cc1cc(OC(F)(F)F)ccc1NC(=O)c1c(I)cccc1C(=O)NC(C)C [compound 464]
Insecticidal effect on diamondback moth (Test Example 1), judged grade [1]: A (100) | Insecticidal effect on rice leafroller (Test Example 3), judged grade [2]: A (100)

CC(C)(C)NC(=O)c1ccccc1C(=O)Nc1ccc(OC(F)(F)F)cc1Cl [compound 1021]
Insecticidal effect, Test Example 1 [1, 5]: A (100) | Insecticidal effect, Test Example 3 [2, 6]: A (100)

Cc1cc(C(F)(F)C(F)(F)F)ccc1N(C)C(=O)c1cccc(Cl)c1C(=O)N(C)Cc1ccccc1 [compound 1553]
Insecticidal effect (Test Example 1), judged from mortality [1]: A (100) | Insecticidal effect (Test Example 3), judged from mortality [2, 4]: A (100)

COc1c(C)ccc(NC(=O)c2cccc([N+](=O)[O-])c2C(=O)NC(C)C)c1C [compound 694]
Insecticidal effect on diamondback moth (Test Example 1), judged grade [1]: A (100) | Insecticidal effect on rice leafroller (Test Example 3), judged grade [2]: A (100)
